According to patent US20060069132A1, “Azolecarboxamide herbicides” (priority 2004, published 2006):

What was measured:
[1] = test system: barnyardgrass; assay: Test B pre-/postemergence herbicide test; format: in vivo, Echinochloa crus-galli; conditions: for Barnyardgrass plant response rating: postemergence
Summary of the method: (§1)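 Herbicidal effect was judged by eye on a 0–100 scale after plants stood 13 to 15 days in the greenhouse following pre- or postemergence treatment with surfactant-containing formulations.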

[2] = test system: Surinam grass; assay: Test B pre-/postemergence herbicide test; format: in vivo, Urochloa decumbens; conditions: for Surinam Grass plant response rating: postemergence
Summary of the method: (§2)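 Test chemicals in a non-phytotoxic solvent mixture with surfactant were applied preemergence to seeded species and postemergence to plants 2-18 cm tall (1- to 4-leaf stage); rice and barnyardgrass were also tested in a flooded paddy at the 2-leaf stage. Visual rating versus controls after 13-15 days in greenhouse, scale 0 (no effect) to 100 (complete control).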

[3] = test system: cocklebur; assay: Test B pre-/postemergence herbicide test; format: in vivo, Xanthium strumarium; conditions: for Cocklebur plant response rating: postemergence
Summary of the method: as §1

[4] = test system: corn; assay: Test B pre-/postemergence herbicide test; format: in vivo, Zea mays; conditions: for Corn plant response rating: postemergence
Summary of the method: as §2

[5] = test system: large crabgrass; assay: Test B pre-/postemergence herbicide test; format: in vivo, Digitaria sanguinalis; conditions: for Crabgrass, Large plant response rating: postemergence
Summary of the method: as §2

[6] = test system: giant foxtail; assay: Test B pre-/postemergence herbicide test; format: in vivo, Setaria faberi; conditions: for Foxtail, Giant plant response rating: postemergence
Summary of the method: as §2

[7] = test system: lambsquarters; assay: Test B pre-/postemergence herbicide test; format: in vivo, Chenopodium album; conditions: for Lambsquarters plant response rating: postemergence
Summary of the method: as §2

[8] = test system: morningglory; assay: Test B pre-/postemergence herbicide test; format: in vivo, Ipomoea coccinea; conditions: for Morningglory plant response rating: postemergence
Summary of the method: as §1

[9] = test system: pigweed; assay: Test B pre-/postemergence herbicide test; format: in vivo, Amaranthus retroflexus; conditions: for Pigweed plant response rating: postemergence
Summary of the method: as §2

[10] = test system: velvetleaf; assay: Test B pre-/postemergence herbicide test; format: in vivo, Abutilon theophrasti; conditions: for Velvetleaf plant response rating: postemergence
Summary of the method: as §2

[11] = test system: blackgrass; assay: Test B postemergence herbicide test; format: in vivo, Alopecurus myosuroides; conditions: postemergence
Summary of the method: (§3)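 Treated at 2-leaf (paddy) or 1–4-leaf, 2–18 cm (postemergence); greenhouse 13–15 d; visual score vs control, 0 none to 100 complete control; dash = not tested.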

[12] = test system: wheat; assay: Test B postemergence herbicide test; format: in vivo, Triticum aestivum; parameters: key to Wheat plant response rating: 0 = no effect, 100 = complete control; conditions: postemergence
Summary of the method: as §3

[13] = test system: wild oat; assay: Test B postemergence herbicide test; format: in vivo, Avena fatua; conditions: postemergence
Summary of the method: as §3

[14] = test system: rice; assay: Test B flooded paddy test; format: in vivo, Oryza sativa; conditions: 1000 g ai/ha, scale 0 to 100 (0 no effect, 100 complete control)
Summary of the method: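 Paddy species grown to the 2-leaf stage under flooding; blackgrass sprayed postemergence at 2–18 cm (1- to 4-leaf stage). Plants kept in a greenhouse for 13 to 15 days, then visually rated against controls on 0 (no effect) to 100 (complete control).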

[15] = test system: small flower umbrella sedge; assay: Test B flooded paddy test; format: in vivo, Cyperus difformis; conditions: 1000 g ai/ha, scale 0 to 100 (0 no effect, 100 complete control)
Summary of the method: as §3

[16] = test system: ducksalad; assay: Test B flooded paddy test; format: in vivo, Heteranthera limosa; conditions: 1000 g ai/ha, scale 0 to 100 (0 no effect, 100 complete control)
Summary of the method: as §3

[17] = test system: barnyardgrass; assay: Test B flooded paddy test; format: in vivo, Echinochloa crus-galli; conditions: 1000 g ai/ha, scale 0 to 100 (0 no effect, 100 complete control)
Summary of the method: as §3

[18] = test system: rice; assay: Test C flooded paddy test; format: in vivo, Oryza sativa
Method: (§4) At the same time, plants selected from these crop and weed species and also winter barley (Hordeum vulgare L.), blackgrass (Alopecurus myosuroides Huds.), canarygrass (Phalaris minor Retz.), chickweed (Stellaria media (L.) Vill.), downy bromegrass (Bromus tectorum L.), green foxtail (Setaria viridis (L.) Beauv.), Italian ryegrass (Lolium multiflorum Lam.), wheat (Triticum aestivum L.), wild oat (Avenafatua L.) and windgrass (Apera spica-venti (L.) Beauv.) were treated with postemergence applications of some of the test chemicals formulated in the same manner. Plants ranged in height from 2 to 18 cm (1- to 4-leaf stage) for postemergence treatments. Plant species in the flooded paddy test consisted of rice (Oryza sativa), smallflower umbrella sedge (Cyperus difformis L.), ducksalad (Heteranthera limosa (Sw.) Willd.) and barnyardgrass (Echinochloa crus-galli (L.) Beauv.) grown to the 2-leaf stage for testing. Treated plants and controls were maintained in a greenhouse for 12 to 14 days, after which time all species were compared to controls and visually evaluated. Plant response ratings, summarized in Table C, are based on a scale of 0 to 100 where 0 is no effect and 100 is complete control. A dash (-) response means no test result.

[19] = test system: smallflower umbrella sedge; assay: Test C flooded paddy test; format: in vivo, Cyperus difformis
Method: as §4

[20] = test system: ducksalad; assay: Test C flooded paddy test; format: in vivo, Heteranthera limosa
Method: as §4

[21] = test system: barnyardgrass; assay: Test C flooded paddy test; format: in vivo, Echinochloa crus-galli
Method: as §4

[22] = 125 g ai/ha, 0 is no effect, 100 is complete control, preemergence
[23] = 125 g ai/ha, visual rating, scale 0 (no effect) to 100 (complete control)
[24] = 500 g ai/ha, visual rating, 0 = no effect, 100 = complete control, preemergence
[25] = 500 g ai/ha, scale 0 to 100, 0 is no effect, 100 is complete control
[26] = 125 g ai/ha, scale 0 to 100 (0 no effect, 100 complete control)
[27] = 250 g ai/ha, scale of 0 to 100, 0 is no effect, 100 is complete control
[28] = 500 g ai/ha, visual rating after 12 to 14 days, scale 0 to 100 (0 no effect, 100 complete control)

Cc1nn(C(C)(C)C)cc1C(=O)Nc1cc(C(=O)N(C)C)ccc1F [Compound 344]
60: Plant response rating (0 to 100 scale), Crabgrass, Large [5, 22] | Plant response rating, Foxtail, Giant [6, 24] | Barnyardgrass plant response rating [17]
85: Plant response rating, Sedge, Umbrella [19, 28]
80: Plant response rating, Morningglory [8, 24] | Sedge, Umbrella plant response rating [15] | Ducksalad plant response rating [16]
20: Plant response rating (0 to 100 scale), Barnyardgrass [1, 22] | Plant response rating (0 to 100 scale), Cocklebur [3, 22] | Lambsquarters plant response rating [7, 23] | Pigweed plant response rating [9, 23] | Velvetleaf plant response rating [10, 23] | Ducksalad plant response rating [20, 27]
0: Barnyardgrass plant response rating [1, 23] | Surinam Grass plant response rating [2, 23] | Cocklebur plant response rating [3, 23] | Crabgrass, Large plant response rating [5, 23] | Blackgrass plant response rating [11, 23] | Blackgrass plant response rating [11, 25] | Wheat plant response rating [12, 23] | Oat, Wild plant response rating [13, 23] | Oat, Wild plant response rating [13, 25] | Rice plant response rating ([18]; 62 g ai/ha, scale 0 to 100) | Rice plant response rating [18, 26] | Rice plant response rating [18, 27] | Sedge, Umbrella plant response rating ([19]; 62 g ai/ha, scale 0 to 100) | Ducksalad plant response rating ([20]; 62 g ai/ha, scale 0 to 100) | Ducksalad plant response rating [20, 26] | Barnyardgrass plant response rating ([21]; 62 g ai/ha, scale 0 to 100 (0 no effect, 100 complete control)) | Barnyardgrass plant response rating [21, 26] | Barnyardgrass plant response rating [21, 27] | Plant response rating, Barnyardgrass [21, 28]
40: Lambsquarters plant response rating [7, 25] | Plant response rating (0 to 100 scale), Velvetleaf [10, 22]
50: Morningglory plant response rating [8, 25] | Pigweed plant response rating [9, 25]
45: Plant response rating, Ducksalad [20, 28]
15: Plant response rating, Rice [18, 28]
10: Barnyardgrass plant response rating [1, 25] | Surinam Grass plant response rating [2, 25] | Cocklebur plant response rating [3, 25] | Plant response rating (0 to 100 scale), Corn [4, 22] | Corn plant response rating [4, 23] | Corn plant response rating [4, 25] | Crabgrass, Large plant response rating [5, 25] | Plant response rating (0 to 100 scale), Foxtail, Giant [6, 22] | Foxtail, Giant plant response rating [6, 23] | Foxtail, Giant plant response rating [6, 25] | Plant response rating (0 to 100 scale), Morningglory [8, 22] | Morningglory plant response rating [8, 23] | Wheat plant response rating [12, 25]
70: Plant response rating, Barnyardgrass [1, 24] | Plant response rating, Cocklebur [3, 24] | Rice plant response rating [14]
30: Plant response rating (0 to 100 scale), Surinam Grass [2, 22] | Velvetleaf plant response rating [10, 25]
90: Plant response rating, Corn [4, 24] | Plant response rating (0 to 100 scale), Lambsquarters [7, 22] | Plant response rating (0 to 100 scale), Pigweed [9, 22] | Plant response rating, Pigweed [9, 24]
75: Sedge, Umbrella plant response rating [19, 26] | Sedge, Umbrella plant response rating [19, 27]
100: Plant response rating, Surinam Grass [2, 24] | Plant response rating, Lambsquarters [7, 24]
